The nature of series [1]: Vial study: influence of humidity in a closed container on binary mixtures of losartan potassium form X. The series is classed as physicochemical. On the procedure: Storage conditions: Vial study—influence of humidity in a closed container (simulation of packaging)
Testing mixtures are put into vials, exposed to 60% humidity for 18 hours, then closed with rubber stoppers and stored in a thermostatically controlled chamber at temperature of 25° C. (±2° C.) and 60% (±5%) relative humidity.
(§1) Mixtures are tested for up to 5 days in open petri dishes and up to 4 and 9 days in vials, and the following parameters were analysed at intervals of a few days or until the occurrence of significant change: appearance, […], conversion of a polymorph form (detected using powder X-ray diffraction spectroscopy and expressed as the amount of crystalline or amorphous phase different from the starting polymorph).

A short description of series [2]: Open dish study: constant influence of humidity on binary mixtures of losartan potassium form X. The series is classed as physicochemical. As to conditions: 5 days, 25° C., 60% relative humidity. On the procedure:
Storage conditions: Open dish study—constant influence of humidity Testing mixtures are put into open petri dishes and stored in a thermostatically controlled chamber at a temperature of 25° C. (±2° C.) and 60% (±5%) relative humidity
as §1

Where [3] appears, read: vial, 4 days, exposed to 60% humidity 18 hours, closed, 25° C., 60% relative humidity.
The mark [4] stands for this setting: vial, 9 days, exposed to 60% humidity 18 hours, closed, 25° C., 60% relative humidity.

In the case of `CCCCc1nc(Cl)c(CO)n1Cc1ccc(-c2ccccc2-c2nnn[n-]2)cc1.[K+]` [Not stabilized API, potassium salt of losartan], the Appearance entry is reported as “white powder” in series [1] (Initial state), “white slightly” in series [1] (setting [3]), “white slightly” in series [1] (setting [4]) and “white slightly” in series [2]. Besides, the “Form conversion (amount of crystalline or amorphous phase different from the starting polymorph, XRPD)” value in series [1] (Initial state) was found to be 0%; in series [1] (setting [3]), 5%; in series [1] (setting [4]) it was 100%; in series [2] it was 10%. Besides, the Loss on drying turned out to be 0.08% in series [1] (Initial state), 0.52% in series [1] (setting [3]) and 0.93% in series [2].

(Values after US20070298108A1, “Pharmaceutical Formulation” (priority 2004, published 2007).)
